In patent US8952024B2, “Herbicidal pyrimidone derivatives” (E I du Pont de Nemours and Company, priority 2009, dated 2015):

Key:
Assay type in all cases: in vivo
[1] = test system: velvetleaf (Abutilon theophrasti); assay: Test B pre-/postemergence plant response
Procedure, shortened: (§1)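 Visually scored on a 0 to 100 scale after 13 to 15 days in greenhouse versus controls. Treatments were preemergence on seeded loam/sand soil and postemergence on 1- to 4-leaf plants.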

[2] = test system: downy bromegrass (Bromus tectorum); assay: Test B pre-/postemergence plant response
Procedure, shortened: as §1

[3] = test system: wheat (Triticum aestivum); assay: Test B pre-/postemergence plant response
Procedure, shortened: as §1

[4] = test system: Surinam grass (Brachiaria decumbens); assay: Test B pre-/postemergence plant response
Procedure, shortened: as §1

[5] = test system: woolly cupgrass (Eriochloa villosa); assay: Test B pre-/postemergence plant response
Procedure, shortened: as §1

[6] = test system: Italian ryegrass (Lolium multiflorum); assay: Test B pre-/postemergence plant response
Procedure, shortened: as §1

[7] = test system: blackgrass (Alopecurus myosuroides); assay: Test B pre-/postemergence plant response
Procedure, shortened: as §1

[8] = test system: morningglory (Ipomoea coccinea); assay: Test B pre-/postemergence plant response
Procedure, shortened: as §1

[9] = test system: large crabgrass (Digitaria sanguinalis); assay: Test B pre-/postemergence plant response
Procedure, shortened: as §1

[10] = test system: yellow nutsedge (Cyperus esculentus); assay: Test B pre-/postemergence plant response
Procedure, shortened: as §1

[11] = test system: goosegrass (Eleusine indica); assay: Test B pre-/postemergence plant response
Procedure, shortened: as §1

[12] = test system: barnyardgrass (Echinochloa crus-galli); assay: Test A pre-/postemergence plant response
Procedure, shortened: (§2)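 Greenhouse trial, ~10 days. Soil (loam/sand) sprayed preemergence after seeding; emerged plants (1–2 leaf, 2–10 cm) sprayed postemergence in parallel. Response = visual injury vs untreated control, 0–100.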

[13] = test system: pigweed (Amaranthus retroflexus); assay: Test A pre-/postemergence plant response
Procedure, shortened: as §2

[14] = 250 g ai/ha, Preemergence, 0 to 100 scale
[15] = Postemergence, 62 g ai/ha, scale 0 (no effect) to 100 (complete control), 13 to 15 days
[16] = Postemergence, 125 g ai/ha, visual rating after 13 to 15 days, scale 0 (no effect) to 100 (complete control)
[17] = Preemergence, 31 g ai/ha, scale 0 to 100 (0 no effect, 100 complete control)
[18] = Preemergence, 125 g ai/ha, 0 to 100 scale
[19] = Postemergence, 31 g ai/ha, scale 0 to 100 (0 no effect, 100 complete control)
[20] = Postemergence, 250 g ai/ha, scale 0 to 100
[21] = Preemergence, 62 g ai/ha, scale 0 to 100, 0 no effect, 100 complete control
[22] = Postemergence, 125 g ai/ha, visual injury, 0 to 100 scale (0 no effect, 100 complete control), approx. ten days
[23] = Postemergence, 500 g ai/ha, 0 to 100 scale, 0 = no effect, 100 = complete control, approx. ten days
[24] = Preemergence, 125 g ai/ha, 0 to 100 scale, 0 = no effect, 100 = complete control
[25] = Preemergence, 500 g ai/ha, visual injury, 0 to 100 scale (0 no effect, 100 complete control), approx. ten days
[26] = 62 g ai/ha, postemergence, 0 is no effect, 100 is complete control, 13 to 15 days
[27] = Postemergence, 31 g ai/ha, 0 to 100 scale (0 no effect, 100 complete control)
[28] = Postemergence, 125 g ai/ha, scale 0 to 100 (0 no effect, 100 complete control)
[29] = Postemergence, 250 g ai/ha, scale 0 to 100 (0 no effect, 100 complete control), 13 to 15 days
[30] = Postemergence, 125 g ai/ha, 0 to 100 scale where 0 is no effect and 100 is complete control

Cc1cccc(-n2c(-c3cccc(Cl)c3)ncc(C(=O)C3=C(O)CCCC3=O)c2=O)c1 [Compound 45]
85: Velvetleaf plant response rating [1, 18] | Crabgrass, Large plant response rating [9, 20]
5: Plant response rating, Bromegrass, Downy [2, 14] | Plant response rating, Blackgrass [7, 14] | Plant response rating, Blackgrass [7, 19] | Plant response rating, Blackgrass [7, 15]
95: Plant response rating, Velvetleaf [1, 14] | Plant response rating, Surinam Grass [4, 16] | Plant response rating, Crabgrass, Large [9, 21]
75: Plant response rating, Surinam Grass [4, 15] | Plant response rating, Cupgrass, Woolly [5, 14] | Plant response rating, Cupgrass, Woolly [5, 15] | Plant response rating, Cupgrass, Woolly [5, 16] | Plant response rating, Morningglory [8, 15] | Plant response rating, Crabgrass, Large [9, 15] | Plant response rating, Crabgrass, Large [9, 16] | Plant response rating, Goosegrass [11, 15]
40: Plant response rating, Barnyardgrass [12, 24]
60: Cupgrass, Woolly plant response rating [5, 18]
45: Plant response rating, Bromegrass, Downy [2, 16] | Plant response rating, Surinam Grass [4, 17] | Plant response rating, Cupgrass, Woolly [5, 17] | Plant response rating, Cupgrass, Woolly [5, 21] | Plant response rating, Crabgrass, Large [9, 17] | Plant response rating, Nutsedge, Yellow [10, 16]
25: Blackgrass plant response rating [7, 20]
100: Plant response rating, Crabgrass, Large [9, 14] | Crabgrass, Large plant response rating [9, 18] | Plant response rating, Goosegrass [11, 14] | Goosegrass plant response rating [11, 18] | Plant response rating, Barnyardgrass [12, 23] | Plant response rating, Pigweed [13, 23] | Plant response rating, Pigweed [13, 25]
30: Plant response rating, Ryegrass, Italian [6, 15]
35: Plant response rating, Ryegrass, Italian [6, 16]
0: Plant response rating, Velvetleaf [1, 17] | Plant response rating, Bromegrass, Downy [2, 17] | Plant response rating, Bromegrass, Downy [2, 21] | Bromegrass, Downy plant response rating [2, 18] | Plant response rating, Wheat [3, 14] | Plant response rating, Wheat [3, 17] | Wheat plant response rating [3, 18] | Plant response rating, Ryegrass, Italian [6, 14] | Plant response rating, Ryegrass, Italian [6, 17] | Ryegrass, Italian plant response rating [6, 18] | Plant response rating, Blackgrass [7, 17] | Plant response rating, Blackgrass [7, 21] | Blackgrass plant response rating [7, 18] | Plant response rating, Morningglory [8, 14] | Plant response rating, Morningglory [8, 17] | Plant response rating, Nutsedge, Yellow [10, 17]
20: Plant response rating, Bromegrass, Downy [2, 15] | Nutsedge, Yellow plant response rating [10, 18]
50: Bromegrass, Downy plant response rating [2, 20]
98: Plant response rating, Surinam Grass [4, 14] | Surinam Grass plant response rating [4, 18]
10: Plant response rating, Bromegrass, Downy [2, 19] | Plant response rating, Blackgrass [7, 16] | Plant response rating, Nutsedge, Yellow [10, 15]
65: Plant response rating, Crabgrass, Large [9, 19]
90: Plant response rating, Velvetleaf [1, 16] | Goosegrass plant response rating [11, 20] | Barnyardgrass plant response rating [12, 22] | Pigweed plant response rating [13, 22]
70: Plant response rating, Cupgrass, Woolly [5, 19] | Plant response rating, Nutsedge, Yellow [10, 14]
15: Plant response rating, Wheat [3, 15] | Plant response rating, Wheat [3, 16]
80: Plant response rating, Velvetleaf [1, 15] | Cupgrass, Woolly plant response rating [5, 20] | Plant response rating, Morningglory [8, 16] | Plant response rating, Goosegrass [11, 16] | Plant response rating, Goosegrass [11, 17] | Plant response rating, Barnyardgrass [12, 25] | Plant response rating, Pigweed [13, 24]

O=C1CCCC(O)=C1C(=O)c1cnc(-c2ccccc2)n(C2CCOCC2)c1=O [Compound 129]
60: Plant response rating, Nutsedge, Yellow [10, 28]
5: Plant response rating, Bromegrass, Downy [2, 27] | Blackgrass plant response rating (0 to 100 scale) [7, 26] | Plant response rating, Blackgrass [7, 28] | Plant response rating, Blackgrass [7, 29]
0: Wheat plant response rating (0 to 100 scale) [3, 26] | Plant response rating, Wheat [3, 27] | Plant response rating, Wheat [3, 28] | Plant response rating, Wheat [3, 29] | Ryegrass, Italian plant response rating (0 to 100 scale) [6, 26] | Plant response rating, Ryegrass, Italian [6, 27] | Plant response rating, Ryegrass, Italian [6, 28] | Plant response rating, Ryegrass, Italian [6, 29] | Plant response rating, Blackgrass [7, 27]
90: Morningglory plant response rating (0 to 100 scale) [8, 26] | Plant response rating, Morningglory [8, 27] | Plant response rating, Morningglory [8, 28] | Plant response rating, Morningglory [8, 29] | Plant response rating, Goosegrass [11, 28] | Plant response rating, Barnyardgrass [12, 30]
80: Plant response rating, Surinam Grass [4, 27] | Plant response rating, Cupgrass, Woolly [5, 27] | Crabgrass, Large plant response rating (0 to 100 scale) [9, 26] | Plant response rating, Crabgrass, Large [9, 27]
30: Plant response rating, Barnyardgrass [12, 24]
10: Bromegrass, Downy plant response rating (0 to 100 scale) [2, 26]
15: Plant response rating, Bromegrass, Downy [2, 28]
85: Surinam Grass plant response rating (0 to 100 scale) [4, 26] | Plant response rating, Surinam Grass [4, 28] | Plant response rating, Surinam Grass [4, 29] | Cupgrass, Woolly plant response rating (0 to 100 scale) [5, 26] | Plant response rating, Cupgrass, Woolly [5, 28] | Plant response rating, Cupgrass, Woolly [5, 29] | Plant response rating, Crabgrass, Large [9, 28] | Plant response rating, Crabgrass, Large [9, 29] | Plant response rating, Nutsedge, Yellow [10, 29] | Goosegrass plant response rating (0 to 100 scale) [11, 26] | Plant response rating, Goosegrass [11, 27]
100: Plant response rating, Velvetleaf [1, 29] | Plant response rating, Barnyardgrass [12, 23] | Plant response rating, Barnyardgrass [12, 25] | Plant response rating, Pigweed [13, 30] | Plant response rating, Pigweed [13, 23] | Plant response rating, Pigweed [13, 24] | Plant response rating, Pigweed [13, 25]
35: Plant response rating, Bromegrass, Downy [2, 29] | Nutsedge, Yellow plant response rating (0 to 100 scale) [10, 26] | Plant response rating, Nutsedge, Yellow [10, 27]
95: Velvetleaf plant response rating (0 to 100 scale) [1, 26] | Plant response rating, Velvetleaf [1, 27] | Plant response rating, Velvetleaf [1, 28] | Plant response rating, Goosegrass [11, 29]
